Measured values from patent US8017747B2, “Apoptosis-inducing genes for treating cancer” (Nationwide Children's Hospital, Inc., priority 2004, dated 2011).
Structures can show the parent of a compound that is named as a salt. Where two headings read alike, the source gives them in different places.

Legend:
697Bcl2 cells = test: 697Bcl2 cell growth, trypan blue exclusion; format: cell-based; details: 72 hours
Excerpt: (§1) To determine cell viability, cells were subjected to trypan blue exclusion assays. Briefly, cells were washed with PBS, and diluted 1:1 in a solution of 0.4% trypan blue. Viable cells were counted and total viable cell number was used for growth curves. Late apoptotic/necrotic cells were also identified by staining with 0.4% trypan blue. The number of apoptotic/necrotic cells were counted and expressed as a percentage of the total number of cells.
(§2) The foregoing descriptions provide many working examples organized under a single example as an aid to the reader. Further, these descriptions emphasized the results obtained with Jurkat cells.

[1] = system: SKOV-3 intraperitoneal ovarian tumors; details: 26 days; for Tumor Size / Tumor Weight: mean
Jurkat cells [2] = test: Western blot of Jurkat lysates (Granzyme B, caspase-3, p21); format: cell-based; details: 48 hours
Description: Proteins were extracted from cells by boiling in 0.5% SDS. Quantification of the protein content of the cell lysates was determined using the Lowry method. A total of 15 μg of each cell lysate were analyzed through electrophoretic separation in 12% SDS-PAGE and transferred onto a nitrocellulose membrane using a semi-dry transfer apparatus, at 20V for 1 hour. The membrane was probed with rabbit anti-caspase-3 polyclonal antibody (1:1000, Santa Cruz Biotech), rabbit anti-granzyme B (1:1000, Abcam) or mouse anti-p21 (1:1000, Santa Cruz Biotech) and HRP-conjugated anti-rabbit or anti-mouse IgG (1:5000, Santa Cruz Biotech). Detection was achieved using the ECL or ECL Advanced kits (Amersham) and exposure to X-ray film for varying amounts of time. Protein standards were used for size determination.
Proliferating Jurkat cells were transfected with the survivin promoter-granzyme B construct disclosed herein and termed SAGA, for 24 or 48 hours. Protein extracts were generated from transfected cells and control transfected cells, and analyzed by SDS-PAGE.
After confirming expression of Granzyme B from SAGA, its apoptotic function was tested by assaying for caspase-3 activation. Proliferating Jurkat cells were transfected with SAGA for 24 or 48 hours, as previously described. Protein extracts were separated by SDS-PAGE.
The levels of p21 in control cells at both time points were negligible.

Jurkat cells (T-ALL) = test: Annexin V/PI staining with FACS, T-ALL (Jurkat); format: cell-based
Description: (§3) To analyze early apoptotic events, cells from the different experimental conditions were subjected to staining with an Annexin V-FLUOS kit (Roche). FACS analysis was then performed.
Annexin-V/PI is a commonly used method to detect early apoptotic events in cells. We employed this strategy to assay early apoptosis in SAGA transfected cells at 12, 24 and 48 hours.
Apoptotic events were detected by Annexin V staining and by changes in mitochondrial potential, as early as 12 hours post-treatment. In addition to these events, DNA fragmentation was also observed and caspase-3 activation was evident in treated cells. Cytotoxicity was clearly visible by microscopic analysis 24 hours post-treatment (FIG. 3).

Daoy cells [3] = test: Phase contrast microscopy of Daoy cells; format: cell-based; details: 48 and 72 hours
Description: Living cells in 12-well plates were observed by phase contrast microscopy using a Leica Inverted microscope at 10× magnification.
SAGA-transfected, VCR-treated, and control cells were visualized microscopically at 0, 24, 48 and 72 hours post transfection/treatment. At 0 hours, the cells in all groups appeared healthy.

Jurkat cells [4] = test: Jurkat cell growth/viability and late apoptosis, trypan blue exclusion; format: cell-based
Description: Acute T-cell leukemia cells, Jurkat, were grown in RPMI-1640 (Mediatech) supplemented with 10% FBS and grown at 37° C. in 95% air, 5% CO2. For growth analysis, cells were seeded at a density of 2×10^5 cells and for all other experiments a density of 5×10^5 was used. Transfections were performed using effectene transfection reagent, at a ratio of 1 μg DNA:25 μl effectene.
as §1
Proliferating Jurkat cells were seeded at a density of 2×10^5 cells and transfected with control plasmid, SAGA, or treated with 2 μM VCR. Viable cells were assayed by trypan blue exclusion at 0, 12, 24, 48 and 72 hours post-transfection/treatment. […]
Late apoptosis was quantified as the percentage of dead cells versus total cells. […]
In addition to the single treatment effects of SAGA expression on transfected cells, the combined effects of treatment with SAGA plus VCR were also evaluated in vitro using Jurkat cells. […]

Daoy cells [5] = test: Daoy cell growth/viability, trypan blue exclusion; format: cell-based; details: 24 hours, VCR 2 μM
Description: Medulloblastoma cell lines, i.e., Daoy cells (ATCC HTB-186), were grown in DMEM-(Mediatech) supplemented with 10% FBS and grown at 37° C. in 95% air, 5% CO2. For growth analysis, cells were seeded at a density of 1.5×10^5 cells. Transfections were performed using effectene transfection reagent, at a ratio of 1 μg DNA:10 μl effectene.
as §1
Proliferating Daoy cells were seeded at a density of 1.5×10^5 cells and transfected with control plasmid, SAGA, or treated with 2 μM VCR. Viable cells were assayed by trypan blue exclusion at 0, 24, 48 and 72 hours post-transfection/treatment. There was a 90% decrease in the viability of SAGA-transfected cells at 24 hours compared to 50% for VCR-treated cells. Control cells grew consistently, with a doubling time of approximately 48 hours.

Jurkat cells [6] = test: DNA fragmentation by agarose gel, Jurkat; format: cell-based; details: 48 hours
Description: To analyze DNA fragmentation, cellular DNA was isolated by lysis of cells in Cell Lysis Buffer (50 mM Tris-HCl, pH 8.5, 20 mM EDTA, 1% NP-40 (IGEPAL CA-630)) for 30 minutes on ice, followed by a 1 hour incubation at 56° C. with 500 μg/ml RNase A (Roche) and an overnight incubation with 1 mg/ml proteinase K (Fisher) at 37° C. After allowing the solution to cool to room temperature, proteins were precipitated with Protein precipitation solution (Gentra Systems) and isopropanol was added to the supernatants containing DNA to precipitate that DNA. The resulting RNase-treated DNA was quantified by spectrophotometry and 5 μg of DNA were resolved in a 1.8% agarose gel at 80V for 2 hours. DNA was stained by ethidium bromide and visualized with a UV transilluminator. A 1 kB Plus DNA ladder (Fisher) was run alongside the samples.
DNA fragmentation is a common sign of late-stage apoptosis that is characterized by enzyme-mediated nicks and breaks in the DNA. […] The onset of DNA fragmentation occurred at 12 hours post-treatment for SAGA-treated cells. […] DNA from control cells remained intact throughout the experiment.

Jurkat cells [7] = test: Phase contrast microscopy of Jurkat cells (morphological changes); format: cell-based; details: 12 hours
Description: SAGA transfected, VCR treated, and control cells were visualized microscopically at 0, 12, 48 and 72 hours post transfection/treatment. At 0 hours, the cells in all groups appeared healthy. At 12 hours, there was approximately 5% apoptosis seen in both SAGA- and VCR-treated cell populations. At 48 and 72 hours, more than 50% of apoptotic cells in SAGA- and VCR-treated cell populations were visualized, with a very high degree of morphologically abnormal cells in the population of cells transfected with SAGA, including late necrotic and lysed cells, appearing as cellular debris.

697Bcl2 cells (B-ALL) = test: Annexin V/PI staining with FACS, B-ALL (697Bcl2); format: cell-based
Description: as §3, §2

COc1cc([C@@H]2c3cc4c(cc3[C@@H](O[C@@H]3O[C@@H]5CO[C@@H](C)O[C@H]5[C@H](O)[C@H]3O)[C@H]3COC(=O)[C@H]23)OCO4)cc(OC)c1O [Etoposide, etoposide]
living cells as % of the original inoculum (697Bcl2 cells; vincristine normal serum concentration, etoposide 5 μM): 61.8%

CC(=O)O[C@H]1C(=O)[C@@]2(C)[C@H]([C@H](OC(=O)c3ccccc3)[C@]3(O)C[C@H](OC(=O)[C@H](O)[C@@H](NC(=O)c4ccccc4)c4ccccc4)C(C)=C1C3(C)C)[C@]1(OC(C)=O)CO[C@@H]1C[C@@H]2O [Paclitaxel, paclitaxel]
Disease Dissemination [1]: 4 of 5
Number of Nodules [1]: 6.2 ± 3.9
Animals with Tumors at Completion of Therapy ([1]; paclitaxel 15 mg/kg i.p. 2 injections, SAGA 0.5 mg/kg DNA i.p. twice weekly): 5 of 5
Tumor Size [1]: 10.4 ± 1.3 mm
Tumor Weight [1]: 236.0 ± 79.8 mg
Tumor Size ([1]; listed as paclitaxel): 10.4 mm
Tumor Weight ([1]; listed as paclitaxel): 236.0 mg

CC[C@]1(O)C[C@H]2CN(CCc3c([nH]c4ccccc34)[C@@](C(=O)OC)(c3cc4c(cc3OC)N(C=O)[C@H]3[C@@](O)(C(=O)OC)[C@H](OC(C)=O)[C@]5(CC)C=CCN6CC[C@]43[C@@H]65)C2)C1 [Vincristine, Vincristine sulfate]
p21 protein induction (Jurkat cells [2]): much lower levels
Early Apoptosis (Jurkat cells (T-ALL); 24 hours): 46.5%
Necrosis (Jurkat cells (T-ALL); 24 hours): 18%
Early Apoptosis (Jurkat cells (T-ALL); 48 hours): 49.4%
Necrosis (Jurkat cells (T-ALL); 48 hours): 26%
apoptotic cells seen microscopically (Daoy cells [3]): high numbers of apoptotic cells
average viability (Jurkat cells [4]; 48 hours after treatment): 86%
final living cell count as % of the initial cell number at time 0 (Jurkat cells [4]; 72 hours post-transfection/treatment, VCR 2 μM): 63%
decrease in viability (Daoy cells [5]): 50%
DNA fragmentation (Jurkat cells [6]): visible
apoptosis seen microscopically (Jurkat cells [7]): approximately 5%
Early Apoptosis (697Bcl2 cells (B-ALL); 24 hours): 1.78%
Necrosis (697Bcl2 cells (B-ALL); 24 hours): 1.17%
Early Apoptosis (697Bcl2 cells (B-ALL); 48 hours): 5.09%
Necrosis (697Bcl2 cells (B-ALL); 48 hours): 2.34%
living cells as % of the original inoculum (697Bcl2 cells; high dose of vincristine (5 μM)): 103%
